The target in data set [1] is T1, D-3-phosphoglycerate dehydrogenase (Homo sapiens, UniProt O43175).
T1 sequence (O43175 whole entry): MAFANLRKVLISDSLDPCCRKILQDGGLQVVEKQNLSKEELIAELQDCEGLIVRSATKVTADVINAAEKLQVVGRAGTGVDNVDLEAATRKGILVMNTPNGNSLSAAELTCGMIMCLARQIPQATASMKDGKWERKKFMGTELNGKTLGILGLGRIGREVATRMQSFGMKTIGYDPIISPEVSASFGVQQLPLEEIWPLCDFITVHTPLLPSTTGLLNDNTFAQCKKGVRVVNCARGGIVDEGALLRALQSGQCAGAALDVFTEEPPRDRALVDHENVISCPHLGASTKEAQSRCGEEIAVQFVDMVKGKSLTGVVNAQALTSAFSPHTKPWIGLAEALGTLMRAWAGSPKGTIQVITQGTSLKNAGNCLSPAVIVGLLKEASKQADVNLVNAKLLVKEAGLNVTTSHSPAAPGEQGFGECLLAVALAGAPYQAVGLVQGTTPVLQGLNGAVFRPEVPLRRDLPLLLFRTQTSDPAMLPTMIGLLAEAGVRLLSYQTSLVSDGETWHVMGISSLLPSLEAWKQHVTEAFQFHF
The experiment in a line: Inhibition of PHGDH (unknown origin).

Data set [2] concerns the target T2, D-3-phosphoglycerate dehydrogenase (Homo sapiens) (UniProt O43175).
T2 sequence (whole entry): T1 sequence (O43175 whole entry)
Put plainly: Inhibition of N-terminal His6-tagged human liver PHGDH expressed in Escherichia coli Rosetta (DE3)pLysS at 57 uM using 3-phosphoglycerate as substrate after 20 mins in presence of NAD+ by resazurin fluorescence based PSAT1/diaphorase/PSPH coupled enzyme assay. Background: Resazurin is reduced to fluorescent resorufin, in cell work by metabolically active cells.

Data set [3] can be described thus: Half life in rat liver microsomes at 1 uM at 37 degC in presence of NADPH regeneration system incubated for 15 mins by LC-MS/MS analysis. It is filed as ADME, microsome. A general note: Microsomes from liver hold many membrane-bound enzymes, among them those of drug oxidation.
Data set [4] addresses T1, D-3-phosphoglycerate dehydrogenase.
Data set [5] in a line: Aqueous solubility of the compound. It is filed as physicochemical.

Usually IC50 stands for the point on the concentration scale where inhibition reaches its midpoint. Turning to `CCNC(=S)N/N=C/c1ccc(-c2ccc(C(=O)O)c(Cl)c2)o1`, in data set [1], the IC50 stood at 35.7 µM.

In general, inhibition refers to the relative decrease from the control value, in per cent. Take `FC(F)(F)c1cccc(N2CCN(C(=S)Nc3ccccn3)CC2)c1`: the inhibition in data set [2] turned out to be 93%. For the same molecule, the t1/2 in data set [3] was found to be 16 min. Half-maximal inhibition in data set [4] (IC50) required 6.8 µM.

Regarding `Cc1cc(C)nc(NC(=S)N2CCN(c3cccc(C(F)(F)F)c3)CC2)c1`, the inhibition in data set [2] came to 92%. Besides, in data set [3], the t1/2 is recorded as more than 30 min. In data set [4], this molecule returned an IC50 of 6.3 µM.

By solubility is commonly meant the concentration that dissolves in the medium under given conditions. With `Cc1cc(C)nc(NC(=S)N2CCN(c3ccncc3)CC2)c1`, the Imax in data set [2] was 33%. The same molecule showed a solubility in data set [5] of more than 48 µM.

For the molecule `Cc1cc(C)nc(NC(=S)N(C)CCN(C)Cc2ccc(C(F)(F)F)cc2)c1`, the inhibition in data set [2] amounted to 84%. In addition, the IC50 in data set [4] was found to be 7.3 µM.

On to `Cc1cc(C)nc(NC(=S)N2CCN(Cc3ccccn3)CC2)c1`, for which the inhibition in data set [2] turned out to be 51%. Also, the IC50 in data set [4] came out at 50 µM.

In the case of `Cc1cc(C)nc(NC(=S)N2CCN(Cc3ccccc3F)CC2)c1`, the inhibition in data set [2] was found to be 56%. Besides, inhibition in data set [4] was half-maximal at 41 µM (IC50).

As for `Cc1cc(C)nc(NC(=S)N2CCN(Cc3ccc(OC(F)(F)F)cc3)CC2)c1`, the inhibition in data set [2] is 96%. Further, it took 11 µM to reach half-maximal inhibition in data set [4] (IC50).

In the case of `Cc1cc(C)nc(NC(=S)N2CCC(NC(=O)c3cccc(C(F)(F)F)c3)CC2)c1`, the inhibition in data set [2] is 94%. Moreover, in data set [4], the IC50 was 11 µM.

The record behind these values is ChEMBL document CHEMBL4118111, “Discovery and optimization of piperazine-1-thiourea-based human phosphoglycerate dehydrogenase inhibitors” (Bioorg Med Chem, 2018).
